The nature of series [1]: Acute toxicity, minimum lethal dose (oral, mice). It is filed as in vivo. As to conditions: male dd-mice, mortality observed for seven days. The procedure: The compounds were orally administrated to male dd-mice weighing 20±1 g. Minimum lethal dose (MLD) was determined by observing the mortality for seven days after the administration.
Series [2] relates to Experimental asthma. The series can be described thus: Experimental asthma (collapse time after antigen aerosol). It is filed as in vivo, guinea pig (Hartley male). The settings on record: 50 mg/kg oral, passively sensitized guinea pigs, 1.5% EWA aerosol; control 254 ± 18. As to the method: Guinea pigs were passively sensitized as follows. Hartley male guinea pigs weighing 350 to 500 g were intraperitoneally injected with 1 ml of rabbit anti-egg alubmin (EWA) serum prepared by the method of Koda et al. [Folia pharmacol., Japon, 66, 237 (1970)]. The animals were treated with intraperitoneal injection of diphenhydramine (20 mg/kg) and propranolol (5 mg/kg), 30 minutes before administration of test compounds. 17 hours after the sensitization, the test compounds (50 mg/kg) or saline (control) were orally administered to sensitized animals. After one hour from the administration of the test compounds, the guinea pigs were placed in plastic observation box and were exposed to an aerosal antigen of 1.5% EWA.
The time until the onset of respiratory distress-like symptom [collapse time (second)] was measured as a result of experimental asthma.

Series [3] concerns trachea. The series can be described thus: Passive Schultz-Dale reaction (bronchodilatory effects), relaxation of sensitized trachea strips. More on the design: species or system guinea pig (Hartley male). The settings on record: Cavia porcellus; sensitized guinea pig trachea, EWA 1 μg/ml, 37° C.; read-out: Passive S-D reaction IC50 (concentration of 50% relaxation rate). The procedure:
Guinea pigs were passively sensitized as follows. […] After 24 hours, the guinea pigs were stunned and exsanguinated, and then trachea was excised. The zig-zag strips of the trachea were prepared by the method of Emmerson and Mackay [J. Pharm. […] After the contraction curves reached plateau the compounds were successively added in order to get cumulative concentration-relaxation curves.

A short description of series [4]: Diuretic activity (oral, urine collected for 6 hours). In kind it is in vivo, rat (Wistar male rats). As to conditions: Rattus norvegicus, rats; for response vs control in vivo at 6.25 mg/kg: 6.25 mg/kg oral; for response vs control in vivo at 25 mg/kg: 25 mg/kg oral. As to the method: Wistar male rats weighing 150 to 300 g were used after they were fasted for 18 hours. A test compound or saline (control) was orally administered to rats and urine was collected for 6 hours. The test was performed using 3 groups per the test compound, and each group consists of 3 animals. The urine was metered by a measuring cylinder and electrolytes (Na^+ and K^+) in the urine were assayed with a flame photometer (model […] manufactured by Hitachi Ltd.). Parameters in Table 3 are all expressed by relative value for control.

Series [5] has as its system Glycerol-induced Renal Deficient Model. The series can be described thus: Renal protecting activity (glycerol-induced renal deficient model): serum creatinine and urea nitrogen. As to conditions: 10 mg/kg intraperitoneal, rats, 24 hours after glycerol injection, own control beside each compound; for Creatinine in serum, glycerol treated, test compound administrated: normal control 0.50. It is filed as in vivo, rat (Wistar male rats). The procedure: It is well known that subcutaneous or intramuscular administration of glycerol to rat induce acute renal insufficiency characterized by renal tubular disturbance [Can J. Physiol.
Wistar male rats (fasted both food and water for 18 hours) were used. A test compound or saline (control) was intraperitoneally administered (dose: 10 mg/kg) to rats. After 30 minutes rats were anesthesized with ether and the back skin was picked up and 0.8 ml/100 g of 50% glycerol was subcutaneously administered. 24 hours after the glycerol injection, the rats were anesthesized with ether and 5 ml of the blood was collected from the descending aorta. To obtain the serum, after allowing it to stand for 30 minutes or longer, the blood sample was centrifuged at 3000 rpm for 10 minutes. Creatinine in the serum sample was determined using autoanalyzer (AU510, Olympus) or clinical analysis kit of creatinine (Creatinine Test Wako; by Wako Pure Chemical Ind., Japan). Urea nitrogen in the serum was determined using autoanalyzer (AU510; made by Olympus Optical Co., Ltd, Japan) or clinical analysis kit of urea nitrogen (Urea nitrogen test wako; by Wako Pure Chemical Ind., Japan).

Series [6] relates to Platelet Activating Factor (PAF)-induced mortality. Nature of the series: Inhibition of Platelet Activating Factor (PAF)-induced mortality. In kind it is in vivo, mouse (male dd mice). As to conditions: Mus musculus, 2 h, oral, mice, one hour before PAF 40 μg/kg i.v., p<0.05 vs control, read-out: PAF-induced mortality inhibition, minimum effective dose (MED). As to the method:
The experiment was performed by a minor modification of method of Carlson et al. [Agents and Actions, 21, 379 (1987)]. Groups each consisting of 10 male dd mice (weighing 28 to 32 g) were used, and 100 mg/kg of test compound or a saline (control) was orally administrated. One hour after the administration of test compound, 40 μg/kg of PAF (manufactured by Avanti Polar Lipids Co., Ltd.) was intravenously administered. Two hours after PAF injection, the mortality rate of the animals was observed.

The conditions of series [7]: J. Med. Chem., 23, 1188 (1980); cited from earlier work.
Where [8] appears, read: relative value for control (1.00), read-out: Na+/K+.
[9] abbreviates: relative value for control, read-out: Excretion of K+.
Setting [10] is: relative value for control, read-out: Excretion of Na+.
The mark [11] stands for this setting: relative value for control, read-out: Urine volume.

The structures appear in SMILES notation. Where two headings read alike, the source gives them in different places.

With `Cn1cnc2c1C1=NCCN1C(=O)N2Cc1ccccc1` [10 Sa], the “Minimum lethal dose (MLD)” value in series [1] is given as greater than 300 mg/kg. In addition, the “Experimental asthma, collapse time” value in series [2] turned out to be 357 ± 65 s. For the same compound, the IC50 in series [3] is 9.7 µM.
Take `CCCN1C(=O)N2CC(C(C)C)N=C2c2[nH]c(C3CCCC3)nc21` (stereo not drawn) [13 Sa]: the “Experimental asthma, collapse time” value in series [2] came out at 374 ± 76 s. In addition, the response vs control in vivo at 6.25 mg/kg in series [4] (setting [8]) was 163%; in series [4] (setting [9]) it was 18%; in series [4] (setting [10]), 92%; in series [4] (setting [11]) it was 140%.
For `CCCN1C(=O)N2CC(c3ccccc3)N=C2c2[nH]c(C3CCCC3)nc21` (stereo not drawn) [15 Sa], in series [1], the “Minimum lethal dose (MLD)” value is greater than 300 mg/kg. Besides, the “Creatinine in serum, glycerol treated, test compound administrated” value in series [5] came out at 2.34 ± 0.12 mg/dL. Further, in series [5] (normal control 15.2), the “Urea nitrogen in serum, glycerol treated, test compound administrated” value was found to be 101.8 ± 11.8 mg/dL. Moreover, the response vs control in vivo at 6.25 mg/kg in series [4] (setting [8]) was found to be 232%; in series [4] (setting [9]) it was 9%; in series [4] (setting [10]) it was 153%; in series [4] (setting [11]), 137%. For the same compound, the response vs control in vivo at 25 mg/kg was determined as 151% in series [4] (setting [8]), 26% in series [4] (setting [9]), 90% in series [4] (setting [10]) and 95% in series [4] (setting [11]). In addition, the IC50 in series [3] is greater than 40 µM. Further, the minimal effective dose in series [6] is 100 mg/kg.
Consider `CCCN1C(=O)N2CCN=C2c2[nH]cnc21` [Compound 2, 4-n-Propyl-1,4,7,8-tetrahydro-5H-imidazo[2,1-i]purin-5-one], for which the “Experimental asthma, collapse time” value in series [2] is 552 ± 20 s. In addition, the “Creatinine in serum, glycerol treated, test compound administrated” value in series [5] turned out to be 1.63 ± 0.19 mg/dL. In addition, the IC50 in series [3] was found to be 21 µM. In addition, the minimal effective dose in series [6] stood at 100 mg/kg.
With `CCCN1C(=O)N2C(=NCC2c2ccccc2)c2c1ncn2C` (stereo not drawn) [Compound 5, 1-Methyl-7-phenyl-4-n-propyl-1,4,7,8-tetrahydro-5H-imidazo[2,1-i]purin-5-one], the “Minimum lethal dose (MLD)” value in series [1] was greater than 300 mg/kg. The “Experimental asthma, collapse time” value in series [2] was 542 ± 36 s. The response vs control in vivo at 25 mg/kg in series [4] (setting [8]) was found to be 167%; in series [4] (setting [9]) it was 77%; in series [4] (setting [10]), 197%; in series [4] (setting [11]), 165%. For the same compound, the IC50 in series [3] amounted to 32 µM.
Take `Cn1c(=O)c2[nH]cnc2n(C)c1=O` [Theophylline, reference compound]: the “Experimental asthma, collapse time” value in series [2] came out at 414 ± 47 s. Also, the IC50 in series [3] amounted to 23 µM. Moreover, the minimal effective dose in series [6] came out at 100 mg/kg.
In the case of `O=C1N2CCN=C2c2[nH]cnc2N1Cc1ccc(Cl)cc1` [formula (A)], in series [7], the bronchodilatory effect result is recorded as “slight bronchodilatory effect”.

These data come from patent US5270316A, “Condensed purine derivatives” (Kyowa Hakko Kogyo Co., Ltd., priority 1989, dated 1993).
